Paper PMC3483245, “Optimization of a direct spectrophotometric method to investigate the kinetics and inhibition of sialidases” (BMC Biochemistry, 2012)
pKi: −log10 of the molar value. “Also recorded” adds a separate entry of the source.

Tests used:
pneumococcal sialidases = test system: pneumococcal sialidases; parameters: method as in PMID 18835278; settings: buffer substance; cited from earlier work
NanA [1] = target: T1, NanA (Streptococcus pneumoniae, UniProt P62576); experiment: biochemical; assay type: biochemical; settings: for inhibition of NanA (in words): modified direct method
T1 sequence (P62576 54-1035): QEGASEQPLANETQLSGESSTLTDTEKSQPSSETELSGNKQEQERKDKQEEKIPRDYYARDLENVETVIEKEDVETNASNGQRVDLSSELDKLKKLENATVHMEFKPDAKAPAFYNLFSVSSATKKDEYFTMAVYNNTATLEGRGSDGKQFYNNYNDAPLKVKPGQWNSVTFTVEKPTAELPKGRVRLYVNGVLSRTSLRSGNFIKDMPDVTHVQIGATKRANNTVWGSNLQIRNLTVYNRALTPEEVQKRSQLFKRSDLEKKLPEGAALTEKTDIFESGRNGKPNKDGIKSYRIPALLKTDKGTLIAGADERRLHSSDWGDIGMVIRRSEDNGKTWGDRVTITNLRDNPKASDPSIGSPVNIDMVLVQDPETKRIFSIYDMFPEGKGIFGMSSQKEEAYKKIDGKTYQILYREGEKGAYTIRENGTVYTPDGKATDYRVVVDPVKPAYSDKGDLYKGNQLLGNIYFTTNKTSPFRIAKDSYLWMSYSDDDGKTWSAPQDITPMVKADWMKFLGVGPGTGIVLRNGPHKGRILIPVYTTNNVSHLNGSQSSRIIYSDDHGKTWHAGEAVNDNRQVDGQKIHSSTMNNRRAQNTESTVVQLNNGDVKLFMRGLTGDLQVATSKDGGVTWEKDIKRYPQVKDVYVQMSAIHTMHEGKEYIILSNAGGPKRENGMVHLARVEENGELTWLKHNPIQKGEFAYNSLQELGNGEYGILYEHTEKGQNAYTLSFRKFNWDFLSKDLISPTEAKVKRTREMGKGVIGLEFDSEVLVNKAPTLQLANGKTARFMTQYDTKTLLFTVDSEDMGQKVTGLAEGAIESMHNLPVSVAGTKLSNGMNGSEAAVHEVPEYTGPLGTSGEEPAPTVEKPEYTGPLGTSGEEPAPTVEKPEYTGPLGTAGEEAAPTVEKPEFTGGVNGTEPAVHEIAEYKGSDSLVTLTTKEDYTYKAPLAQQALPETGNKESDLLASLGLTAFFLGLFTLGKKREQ

NanC [2] = target: T2, NanC (Streptococcus pneumoniae, UniProt A0A0H2UQE4); experiment: biochemical
T2 sequence (A0A0H2UQE4 entry or part of it): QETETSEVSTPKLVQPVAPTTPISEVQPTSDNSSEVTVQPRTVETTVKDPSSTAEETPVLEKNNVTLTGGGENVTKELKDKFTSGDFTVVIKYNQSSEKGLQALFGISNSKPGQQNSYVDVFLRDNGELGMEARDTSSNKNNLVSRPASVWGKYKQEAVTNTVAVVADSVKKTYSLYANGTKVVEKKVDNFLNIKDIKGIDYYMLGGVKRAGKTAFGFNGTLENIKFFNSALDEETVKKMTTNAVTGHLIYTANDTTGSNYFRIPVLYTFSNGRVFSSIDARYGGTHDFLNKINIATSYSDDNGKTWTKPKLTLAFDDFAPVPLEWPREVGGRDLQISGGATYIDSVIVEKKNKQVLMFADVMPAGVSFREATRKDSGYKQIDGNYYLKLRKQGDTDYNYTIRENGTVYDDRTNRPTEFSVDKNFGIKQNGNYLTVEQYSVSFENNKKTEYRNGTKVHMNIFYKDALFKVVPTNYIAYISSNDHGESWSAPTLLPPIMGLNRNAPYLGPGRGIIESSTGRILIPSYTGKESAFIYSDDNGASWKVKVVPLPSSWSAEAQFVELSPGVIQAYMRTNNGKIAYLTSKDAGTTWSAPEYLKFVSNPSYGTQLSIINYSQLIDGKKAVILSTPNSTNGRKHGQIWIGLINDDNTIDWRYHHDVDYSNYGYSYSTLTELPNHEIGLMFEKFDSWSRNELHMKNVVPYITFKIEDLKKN

NanA [3] = target: T1, NanA; experiment: Hydrolysis of p-NP-Neu5Ac by NanA, direct spectrophotometric method; assay type: biochemical; settings: 30°C, 20 mM MES pH 6.0, 400 nm
NanC [4] = target: T2, NanC; experiment: Hydrolysis of p-NP-Neu5Ac by NanC, direct spectrophotometric method; assay type: biochemical; settings: 30°C, 20 mM MES pH 6.0, 400 nm
NanA [5] = target: T1, NanA; experiment: Hydrolysis of p-NP-Neu5Ac by NanA, conventional indirect spectrophotometric method; assay type: biochemical; settings: 37°C, stopped with 0.5 M Na2CO3 pH 9.0, 405 nm
Experimental: (§1) The activity of the sialidases was assayed colorimetrically and fluorometrically using the substrates p-NP-Neu5Ac (Sigma, St. Louis, Miss) and 4MU-Neu5Ac (Sigma, St- Louis, Miss), respectively. Conventional indirect assays were performed as previously described. Briefly, the reaction mixtures containing the substrates and up to 100 nM sialidase were incubated at 37°C and stopped by the addition of 0.5 M Na2CO3 pH 9.0 for the colorimetric assay or 0.25 M glycine pH 10.0 for the fluorimetric assay. Released p-NP was detected spectrophometrically at 405 nm. The fluorescence associated with the release of 4-MU was measured at the excitation wavelength of 365 nm and an emission wavelength of 445 nm. These measurements were performed using an EnVision microplate reader (Perkin Elmer, Waltham, Mass.).

NanB [6] = target: T3, NanB (Streptococcus pneumoniae serotype 4, UniProt Q54727); experiment: Hydrolysis of p-NP-Neu5Ac by NanB, conventional indirect spectrophotometric method; assay type: biochemical; settings: 37°C, stopped with 0.5 M Na2CO3 pH 9.0, 405 nm
T3 sequence (Q54727 30-697): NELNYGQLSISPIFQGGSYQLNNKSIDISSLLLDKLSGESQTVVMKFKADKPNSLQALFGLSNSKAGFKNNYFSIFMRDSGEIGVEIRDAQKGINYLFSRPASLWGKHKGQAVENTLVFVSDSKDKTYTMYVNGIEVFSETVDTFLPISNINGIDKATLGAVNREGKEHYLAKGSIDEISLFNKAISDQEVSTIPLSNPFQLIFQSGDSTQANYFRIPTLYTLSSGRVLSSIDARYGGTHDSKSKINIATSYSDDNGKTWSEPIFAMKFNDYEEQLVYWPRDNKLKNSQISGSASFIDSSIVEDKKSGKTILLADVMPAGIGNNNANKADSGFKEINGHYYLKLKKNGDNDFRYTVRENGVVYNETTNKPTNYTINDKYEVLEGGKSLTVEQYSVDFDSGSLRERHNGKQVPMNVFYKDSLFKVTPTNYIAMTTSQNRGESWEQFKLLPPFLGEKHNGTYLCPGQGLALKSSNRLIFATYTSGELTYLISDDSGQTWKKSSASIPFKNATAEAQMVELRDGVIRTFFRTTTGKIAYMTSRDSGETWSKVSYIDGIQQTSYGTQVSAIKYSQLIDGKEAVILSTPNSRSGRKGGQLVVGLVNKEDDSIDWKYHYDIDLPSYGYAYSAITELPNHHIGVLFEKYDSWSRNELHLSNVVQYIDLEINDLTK
Experimental: as §1

NanC [7] = target: T2, NanC; experiment: Hydrolysis of p-NP-Neu5Ac by NanC, conventional indirect spectrophotometric method; assay type: biochemical; settings: 37°C, stopped with 0.5 M Na2CO3 pH 9.0, 405 nm
Experimental: as §1

NanB [8] = settings: direct method, 30°C, 20 mM MES pH 6.0, 400 nm
NanB [9] = target: T3, NanB; experiment: biochemical
[10] = first order kinetics up to 500 μM substrate
[11] = first order kinetics up to 1,200 μM substrate

O=S(=O)(O)CCNC1CCCCC1 [CHES, 2-n-cyclohexylamino ethane sulfonic acid]
inhibition of pneumococcal sialidases (in words) (pneumococcal sialidases): weak inhibitor

CC(=O)N[C@H]1[C@H]([C@H](O)[C@H](O)CO)OC(C(=O)O)=C[C@@H]1O [Neu5Ac2en, 2-deoxy-2,3-didehydro-N-acetylneuraminic acid]
inhibition of NanA (in words) (NanA [1]): significant inhibition; also recorded: inhibition constants in the micromolar range | pKi (NanC [2]): 2.70

CC(=O)N[C@H]1[C@H]([C@H](O)[C@H](O)CO)OC(Oc2ccc([N+](=O)[O-])cc2)(C(=O)O)C[C@@H]1O (some centres unmarked) [p-NP-Neu5Ac, 2-O-(p-nitrophenyl)-N-acetylneuraminic acid]
k cat / K m (NanA [3]): (3.5 ± 0.3) × 10^5 M^-1·s^-1 | K m (NanA [3]; [10]): >500 µM | k cat (NanA [3]; [10]): >175 s⁻¹ | k cat / K m (NanC [4]): (3.4 ± 0.3) × 10^4 M^-1·s^-1 | K m (NanC [4]; [10]): > 500 µM | k cat (NanC [4]; [10]): >17 s⁻¹ | k cat / K m (NanA [5]): (8.4 ± 0.9) × 10^4 M^-1·s^-1 | K m (NanA [5]; [11]): >1,100 μM | k cat (NanA [5]; [11]): >490 s⁻¹ | k cat / K m (NanB [6]): (1.1 ± 0.1) × 10^2 M^-1·s^-1 | K m (NanB [6]; [11]): >1,200 μM | k cat (NanB [6]; [11]): >11 s⁻¹ | k cat / K m (NanC [7]): (1.2 ± 0.1) × 10^4 M^-1·s^-1 | K m (NanC [7]; [11]): > 700 µM | k cat (NanC [7]; [11]): >11 s⁻¹ | k cat / K m (NanB [8]): (2.7 ± 0.3) × 10^2 M^-1·s^-1 | K m (NanB [8]; [10]): >500 µM | k cat (NanB [8]; [10]): >0.14 s⁻¹

CCC(CC)O[C@@H]1C=C(C(=O)O)C[C@H](N)[C@H]1NC(C)=O [Oseltamivir carboxylate]
pKi (NanA [1]): 5.75 | inhibition of NanA (in words) (NanA [1]): significant inhibition; also recorded: inhibition constants in the micromolar range | pKi (NanB [9]): < 2.12 | pKi (NanC [2]): < 2.12

CC(=O)N[C@H]1[C@H]([C@H](O)[C@H](O)CO)OC(C(=O)O)=C[C@@H]1N=C(N)N [Zanamivir]
pKi (NanA [1]): 3.14 | inhibition of NanA (in words) (NanA [1]): Very limited inhibitory effects | pKi (NanB [9]): < 2.12 | pKi (NanC [2]): < 2.12
